These results are taken from patent US20230391752A1, “PYRROLIDINE-3-CARBOXAMIDE DERIVATIVES AND RELATED USES” (Chulalongkorn University, priority 2020, published 2023).

Assay [1] concerns HBV. Nature of the assay: In vitro anti-HBV activity in HepG2.2.15 cell line (intracellular HBV DNA by qPCR at 1 μM). The note with it: Hepatitis B virus, 144 h; HepG2.2.15 cells, 1 μM compound, 6 days, intracellular HBV DNA as percentage compared to vehicle control (0.5% DMSO). Format: cell-based. The essentials:
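Intracellular HBV DNA was quantified by qPCR and given as percent of vehicle (0.5% DMSO), grouped into letter ranges. Stably transfected HepG2.2.15 cells had 6 days of exposure to 1 μM compound, with medium and compound renewed after day 3.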
On the technique in general: Real-time PCR tracks product formation cycle by cycle.

In assay [2] the target is T1, HBV core protein (Cp149) (Hepatitis B virus genotype D subtype ayw, UniProt P03146).
T1 construct: HBV core C-terminally truncated protein (HBV Cp149); made in house
Nature of the assay: HBV capsid assembly by size exclusion chromatography (SEC). It is filed as biochemical. The settings on record: 50 μM compound, 15 μM Cp149, 16 hours at 21° C.

For assay [3], the system named is HBV. Nature of the assay: Effect on intrahepatic HBV DNA levels in HepG2.2.15 cells (EC50). The settings on record: Hepatitis B virus, 144 h, 6 days, intrahepatic HBV DNA by qPCR, read-out: Anti-HBV DNA (EC50). Format: cell-based. As for the experimental part:
HepG2.2.15 cells were treated with compounds, at various concentrations in 10% FCS containing medium, at 37° C. for three days. After that the medium was removed and fresh medium containing the compound was added to the cells for another 3 days. After 6 days of treatment, intrahepatic HBV DNA from cell lysates were isolated. Then qPCR reaction of DNA was performed to measure total HBV DNA levels using specific primer set. The fifty-percent effective concentrations (EC50) for HBV DNA inhibition, relative to no drug controls, was determined using nonlinear fitting curve model. EC50 ranges for HBV DNA inhibition were as follows: A>0.3 μM, B=0.05-0.3 μM, C<0.05 μM (Table B).

T1 sequence (P03146 1-149): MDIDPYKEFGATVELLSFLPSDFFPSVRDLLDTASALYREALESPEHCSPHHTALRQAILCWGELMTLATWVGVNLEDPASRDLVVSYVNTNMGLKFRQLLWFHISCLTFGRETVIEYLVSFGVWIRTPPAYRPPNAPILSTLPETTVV

`Cc1nccnc1-c1ccc2c(Cl)c(C(=O)N3CC[C@H](C(=O)Nc4ccc(F)c(C#N)c4)C3)[nH]c2c1` [Example 139, (S)-1-(3-chloro-6-(3-methylpyrazin-2-yl)-1H-indole-2-carbonyl)-N-(3-cyano-4-fluorophenyl) pyrrolidine-3-carboxamide] returned an activity at 1 µM in assay [1] of less than 45%. Also, the “Size of induced capsids based on SEC retention times” value (“Size of induced capsids based” below) in assay [2] is “capsid retention times between BAY 41-4109 and NVR 3-778”.
In turn, `N#Cc1c(C(=O)N2CC[C@H](C(=O)Nc3cc(F)c(F)c(F)c3)C2)[nH]c2ccccc12` [Example 45, (S)-1-(3-cyano-1H-indole-2-carbonyl)-N-(3,4,5-trifluorophenyl)pyrrolidine-3-carboxamide] had an activity at 1 µM in assay [1] of 60 to 70%. For the same compound, in assay [2], the “Size of induced capsids based” value is on record as “induced capsids similar in size to NVR 3-778”.
Take `C[C@H]1[C@@H](C(=O)Nc2ccc(F)c(C#N)c2)CCN1C(=O)c1[nH]c2cc(-c3cn[nH]c3)ccc2c1Cl` [Example 141, (2S,3S)-1-(3-chloro-6-(1H-pyrazol-4-yl)-1H-indole-2-carbonyl)-N-(3-cyano-4-fluorophenyl)-2-methylpyrrolidine-3-carboxamide]: the activity at 1 µM in assay [1] was less than 45%. Besides, the “Size of induced capsids based” value in assay [2] is “capsid retention times between BAY 41-4109 and NVR 3-778”.
Take `Cc1ncc(-c2ccc(C(=O)N3CC[C@H](C(=O)Nc4ccc(F)c(Cl)c4)[C@@H]3C)[nH]2)cn1` [Example 127, (2S,3S)—N-(3-chloro-4-fluorophenyl)-2-methyl-1-(5-(2-methylpyrimidin-5-yl)-1H-pyrrole-2-carbonyl)pyrrolidine-3-carboxamide]: in assay [1], the activity at 1 µM is less than 45%. The EC50 in assay [3] was 50 to 300 nM.
As to `Cc1c(-c2ccc(C(=O)N3CC[C@H](C(=O)Nc4cc(F)c(F)c(F)c4)C3)[nH]2)cnc2[nH]ccc12` [Example 129, (S)-1-(5-(4-methyl-1H-pyrrolo[2,3-b]pyridin-5-yl)-1H-pyrrole-2-carbonyl)-N-(3,4,5-trifluorophenyl)pyrrolidine-3-carboxamide], in assay [1], the activity at 1 µM was less than 45%. Also, the “Size of induced capsids based” value in assay [2] is “induced capsids similar in size to NVR 3-778”.
For the compound `Cc1ncnc(C)c1-c1ccc2cc(C(=O)N3CC[C@H](C(=O)Nc4cc(F)c(F)c(F)c4)C3)[nH]c2c1` [Example 132, (S)-1-(6-(4,6-dimethylpyrimidin-5-yl)-1H-indole-2-carbonyl)-N-(3,4,5-trifluorophenyl) pyrrolidine-3-carboxamide], the activity at 1 µM in assay [1] was in the range of 45 to 60%. Besides, in assay [2], the “Size of induced capsids based” value is “induced capsids similar in size to NVR 3-778”.
Regarding `O=C(Nc1cc(F)c(F)c(Br)c1)[C@H]1CCN(C(=O)c2cc3ccccc3[nH]2)C1` [Example 10, (S)—N-(3-bromo-4,5-difluorophenyl)-1-(1H-indole-2-carbonyl)pyrrolidine-3-carboxamide], in assay [1], the activity at 1 µM is 70 to 80%.
In assay [1], `Cc1ncnc(C)c1-c1ccc(C(=O)N2CC[C@H](C(=O)Nc3ccc(F)c(C#N)c3)C2)[nH]1` [Example 94, (S)—N-(3-cyano-4-fluorophenyl)-1-(5-(4,6-dimethylpyrimidin-5-yl)-1H-pyrrole-2-carbonyl)pyrrolidine-3-carboxamide] returned an activity at 1 µM of 60 to 70%.
The same measure, in the same setting: under `Cc1n[nH]c(C)c1-c1ccc(C(=O)N2CC[C@H](C(=O)Nc3cc(F)c(F)c(F)c3)C2)[nH]1` [Example 87, (S)-1-(5-(3,5-dimethyl-1H-pyrazol-4-yl)-1H-pyrrole-2-carbonyl)-N-(3,4,5-trifluorophenyl) pyrrolidine-3-carboxamide] stands less than 45%.
`Cc1cc(NC(=O)[C@H]2CCN(C(=O)c3nc4ccccc4[nH]3)C2)ccc1F` [Example 68, (S)-1-(1H-benzo[d]imidazole-2-carbonyl)-N-(4-fluoro-3-methylphenyl)pyrrolidine-3-carboxamide] showed an activity at 1 µM in assay [1] of less than 45%.
The same measure, in the same setting: in the case of `O=C(Nc1cc(F)c(F)c(F)c1)[C@H]1CCN(C(=O)c2ccc(-c3cn[nH]c(=O)c3)[nH]2)C1` [Example 121, (S)-1-(5-(6-oxo-1,6-dihydropyridazin-4-yl)-1H-pyrrole-2-carbonyl)-N-(3,4,5-trifluorophenyl)pyrrolidine-3-carboxamide] it was 80 to 90%.
The same measure, in the same setting: in the case of `O=C(Nc1cc(F)c(F)c(F)c1)[C@H]1CCN(C(=O)c2ncc[nH]2)C1` [Example 27, (S)-1-(1H-imidazole-2-carbonyl)-N-(3,4,5-trifluorophenyl)pyrrolidine-3-carboxamide] it was more than 90%.
Still for that read-out and setting: under `Cc1nn(C)cc1Cc1ccc(C(=O)N2CC[C@H](C(=O)Nc3cc(F)c(F)c(F)c3)C2)[nH]1` [Example 146, (S)-1-(5-((1,3-dimethyl-1H-pyrazol-4-yl)methyl)-1H-pyrrole-2-carbonyl)-N-(3,4,5-trifluorophenyl)pyrrolidine-3-carboxamide] stands 70 to 80%; under `Cc1c(-c2ccc(C(=O)N3CC[C@H](C(=O)Nc4cc(F)c(F)c(F)c4)C3)[nH]2)c2ncccc2n1C` [Example 152, (S)-1-(5-(1,2-dimethyl-1H-pyrrolo[3,2-b]pyridin-3-yl)-1H-pyrrole-2-carbonyl)-N-(3,4,5-trifluorophenyl)pyrrolidine-3-carboxamide], more than 90%.
As for `Cc1n[nH]cc1C(=O)N1CC[C@H](C(=O)Nc2cc(F)c(F)c(F)c2)C1` [Example 31, (S)-1-(3-methyl-1H-pyrazole-4-carbonyl)-N-(3,4,5-trifluorophenyl)pyrrolidine-3-carboxamide], the activity at 1 µM in assay [1] is more than 90%.
In assay [1], `O=C(Nc1ccc(F)c(Cl)c1)[C@H]1CCN(C(=O)c2[nH]c3ccccc3c2Cl)C1` [Example 41, (S)-1-(3-chloro-1H-indole-2-carbonyl)-N-(3-chloro-4-fluoro-phenyl)pyrrolidine-3-carboxamide] registered an activity at 1 µM of less than 45%. In assay [3], the EC50 is 50 to 300 nM.
On to `O=C(Nc1cc(F)c(F)c(F)c1)[C@H]1CCN(C(=O)c2nc3ccccc3[nH]2)C1` [Example 25, (S)-1-(1H-benzo[d]imidazole-2-carbonyl)-N-(3,4,5-trifluorophenyl)pyrrolidine-3-carboxamide], for which the activity at 1 µM in assay [1] lay within 60 to 70%.
For the compound `Cc1ncnc(C)c1-c1ccc2c(Cl)c(C(=O)N3CC[C@H](C(=O)Nc4cc(F)c(F)c(F)c4)C3)[nH]c2c1` [Example 133, (S)-1-(3-chloro-6-(4,6-dimethylpyrimidin-5-yl)-1H-indole-2-carbonyl)-N-(3,4,5-trifluorophenyl)pyrrolidine-3-carboxamide], the activity at 1 µM in assay [1] lay within 45 to 60%. For the same compound, the “Size of induced capsids based” value in assay [2] was “capsid retention times between BAY 41-4109 and NVR 3-778”.
`O=C(NCc1cnc(Cl)s1)[C@H]1CCN(C(=O)c2[nH]c3ccccc3c2Cl)C1` [Example 71, (S)-1-(3-chloro-1H-indole-2-carbonyl)-N-((2-chlorothiazol-5-yl)methyl)pyrrolidine-3-carboxamide]: the activity at 1 µM in assay [1] lay within 70 to 80%.
Regarding `Cc1ncncc1-c1ccc(C(=O)N2CC[C@H](C(=O)Nc3cc(F)c(F)c(F)c3)C2)[nH]1` [Example 89, (S)-1-(5-(4-methylpyrimidin-5-yl)-1H-pyrrole-2-carbonyl)-N-(3,4,5-trifluorophenyl) pyrrolidine-3-carboxamide], in assay [1], the activity at 1 µM was less than 45%.
The same measure, in the same setting: in the case of `Cc1ncnc(C)c1-c1cccc2c(Cl)c(C(=O)N3CC[C@H](C(=O)Nc4ccc(F)c(C#N)c4)C3)[nH]c12` [Example 137, (S)-1-(3-chloro-7-(4,6-dimethylpyrimidin-5-yl)-1H-indole-2-carbonyl)-N-(3-cyano-4-fluorophenyl)pyrrolidine-3-carboxamide] it was 45 to 60%; in that of `Cc1c[nH]nc1C(=O)N1CC[C@H](C(=O)Nc2cc(F)c(F)c(F)c2)C1` [Example 29, (S)-1-(4-methyl-1H-pyrazole-3-carbonyl)-N-(3,4,5-trifluorophenyl)pyrrolidine-3-carboxamide], more than 90%.
Compound `N#Cc1ccc2[nH]c(C(=O)N3CC[C@H](C(=O)Nc4cc(F)c(F)c(F)c4)C3)cc2c1` [Example 8, (S)-1-(5-cyano-1H-indole-2-carbonyl)-N-(3,4,5-trifluorophenyl)pyrrolidine-3-carboxamide] came in with an activity at 1 µM in assay [1] of 80 to 90%.
For the compound `O=C(Nc1cc(F)c(F)c(F)c1)[C@H]1CCN(C(=O)c2ccc(Cl)[nH]2)C1` [Example 52, (S)-1-(5-chloro-1H-pyrrole-2-carbonyl)-N-(3,4,5-trifluorophenyl)pyrrolidine-3-carboxamide], the activity at 1 µM in assay [1] lay within 70 to 80%. For the same compound, in assay [2], the “Size of induced capsids based” value is on record as “induced capsids similar in size to NVR 3-778”.
Compound `Cn1cc(-c2ccc(C(=O)N3CC[C@H](C(=O)Nc4cc(F)c(F)c(F)c4)C3)[nH]2)c2ccncc21` [Example 158, (S)-1-(5-(1-methyl-1H-pyrrolo[2,3-c]pyridin-3-yl)-1H-pyrrole-2-carbonyl)-N-(3,4,5-trifluorophenyl)pyrrolidine-3-carboxamide] registered an activity at 1 µM in assay [1] of 60 to 70%.

The EC50 is the midpoint of the concentration-response curve.
